# Test results from patent publication US20230364070A1, “PYRROLO[3,2-C]PYRIDIN-4-ONE DERIVATIVES USEFUL IN THE TREATMENT OF CANCER” (Scorpion Therapeutics, Inc., priority 2020, published 2023).
# What was measured:
# Assay type in all cases: cell-based
# Ba/F3 cells with EGFR WT = target: T1, Ba/F3 cells with EGFR WT (Homo sapiens, UniProt P00533); test: EGFR activity: Ba/F3 cell viability (CellTiter-Glo, 72 h), EGFR WT; conditions: read-out: BaF3 WT IC50
# T1 construct: expressed in transfected cells; host or cells: Ba/F3 (murine pro-B cells), retroviral transduction, puromycin selection, maintained with EGF
# [1] = target: T2, Ba/F3 cells with EGFR exon 20 ASV Ins V769_D770 (Homo sapiens, UniProt P00533, INS769ASV); test: EGFR activity: Ba/F3 cell viability (CellTiter-Glo, 72 h), EGFR exon 20 ASV insertion; conditions: EGFR exon 20 ASV Ins V769_D770, cell viability, read-out: BaF3 ASV IC50
# T2 construct: expressed in transfected cells; host or cells: Ba/F3 (murine pro-B cells), retroviral transduction, puromycin selection, IL3-independent pool
# [2] = target: T3, Ba/F3 cells with EGFR exon 20 NPG Ins D770_N771 (Homo sapiens, UniProt P00533, INS770NPG); test: EGFR activity: Ba/F3 cell viability (CellTiter-Glo, 72 h), EGFR exon 20 NPG insertion; conditions: EGFR exon 20 NPG Ins D770_N771, cell viability, read-out: BaF3 NPG IC50
# T3 construct: expressed in transfected cells; host or cells: Ba/F3 (murine pro-B cells), retroviral transduction, puromycin selection, IL3-independent pool
# T3 sequence (P00533 with tags, fused parts or gaps INS770NPG): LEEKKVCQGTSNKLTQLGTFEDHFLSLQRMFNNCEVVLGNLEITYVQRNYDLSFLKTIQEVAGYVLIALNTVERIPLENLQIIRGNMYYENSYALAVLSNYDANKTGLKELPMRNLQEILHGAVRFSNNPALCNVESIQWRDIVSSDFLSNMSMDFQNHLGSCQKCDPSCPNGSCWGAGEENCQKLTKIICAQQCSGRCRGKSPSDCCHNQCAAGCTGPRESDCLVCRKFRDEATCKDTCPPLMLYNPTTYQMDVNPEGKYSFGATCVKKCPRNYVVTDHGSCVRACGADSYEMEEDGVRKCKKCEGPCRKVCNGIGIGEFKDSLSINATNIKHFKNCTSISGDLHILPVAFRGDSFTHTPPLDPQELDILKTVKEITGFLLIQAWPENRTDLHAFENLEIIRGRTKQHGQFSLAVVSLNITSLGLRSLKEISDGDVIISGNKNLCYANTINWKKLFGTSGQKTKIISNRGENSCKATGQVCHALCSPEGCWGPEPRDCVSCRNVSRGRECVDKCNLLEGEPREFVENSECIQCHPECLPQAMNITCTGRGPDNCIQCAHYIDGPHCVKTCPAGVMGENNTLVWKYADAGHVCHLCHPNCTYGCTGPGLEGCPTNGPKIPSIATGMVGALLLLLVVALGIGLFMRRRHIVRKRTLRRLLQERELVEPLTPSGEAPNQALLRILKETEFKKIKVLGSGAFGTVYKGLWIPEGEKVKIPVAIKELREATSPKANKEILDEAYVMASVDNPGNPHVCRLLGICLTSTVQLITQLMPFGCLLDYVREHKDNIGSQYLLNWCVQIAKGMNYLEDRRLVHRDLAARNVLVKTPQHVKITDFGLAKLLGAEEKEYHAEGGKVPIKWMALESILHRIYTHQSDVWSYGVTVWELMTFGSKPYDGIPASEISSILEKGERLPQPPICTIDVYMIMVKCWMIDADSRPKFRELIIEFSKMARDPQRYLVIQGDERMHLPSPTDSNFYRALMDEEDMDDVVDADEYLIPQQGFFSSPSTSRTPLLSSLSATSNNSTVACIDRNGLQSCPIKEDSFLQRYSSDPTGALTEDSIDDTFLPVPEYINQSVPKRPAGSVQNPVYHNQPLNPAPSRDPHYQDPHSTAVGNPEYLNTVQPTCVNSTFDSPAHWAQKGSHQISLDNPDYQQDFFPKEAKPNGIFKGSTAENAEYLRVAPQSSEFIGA
# T1 sequence (P00533 25-1210): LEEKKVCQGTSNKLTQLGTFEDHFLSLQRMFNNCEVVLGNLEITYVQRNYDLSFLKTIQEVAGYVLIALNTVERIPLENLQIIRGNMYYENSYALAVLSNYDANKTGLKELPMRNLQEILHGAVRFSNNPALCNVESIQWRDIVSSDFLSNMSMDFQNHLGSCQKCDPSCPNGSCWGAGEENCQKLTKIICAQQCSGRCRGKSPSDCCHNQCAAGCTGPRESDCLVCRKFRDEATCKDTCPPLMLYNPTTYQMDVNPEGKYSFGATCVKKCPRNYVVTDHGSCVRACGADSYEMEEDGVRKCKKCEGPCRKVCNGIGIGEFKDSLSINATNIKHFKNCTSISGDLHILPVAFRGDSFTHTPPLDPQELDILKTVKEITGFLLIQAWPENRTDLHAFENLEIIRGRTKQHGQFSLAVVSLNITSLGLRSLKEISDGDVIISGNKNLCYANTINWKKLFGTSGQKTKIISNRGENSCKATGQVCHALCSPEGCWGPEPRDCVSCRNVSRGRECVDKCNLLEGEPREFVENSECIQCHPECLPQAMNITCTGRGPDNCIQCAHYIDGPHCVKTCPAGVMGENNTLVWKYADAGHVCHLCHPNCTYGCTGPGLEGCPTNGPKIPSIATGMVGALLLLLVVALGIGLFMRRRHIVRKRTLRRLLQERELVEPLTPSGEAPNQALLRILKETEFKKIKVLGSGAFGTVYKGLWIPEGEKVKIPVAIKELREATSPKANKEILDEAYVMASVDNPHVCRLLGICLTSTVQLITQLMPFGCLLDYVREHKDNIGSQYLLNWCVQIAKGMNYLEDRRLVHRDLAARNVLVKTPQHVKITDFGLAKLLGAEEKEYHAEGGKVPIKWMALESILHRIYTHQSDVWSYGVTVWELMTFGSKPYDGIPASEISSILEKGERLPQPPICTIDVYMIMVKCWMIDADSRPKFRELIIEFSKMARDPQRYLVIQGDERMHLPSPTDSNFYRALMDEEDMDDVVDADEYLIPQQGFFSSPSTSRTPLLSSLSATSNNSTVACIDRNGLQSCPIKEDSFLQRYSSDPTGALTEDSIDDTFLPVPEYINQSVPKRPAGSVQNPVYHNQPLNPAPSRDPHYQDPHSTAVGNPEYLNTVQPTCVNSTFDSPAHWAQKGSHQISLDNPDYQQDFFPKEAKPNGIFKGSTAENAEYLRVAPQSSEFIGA
# T2 sequence (P00533 with tags, fused parts or gaps INS769ASV): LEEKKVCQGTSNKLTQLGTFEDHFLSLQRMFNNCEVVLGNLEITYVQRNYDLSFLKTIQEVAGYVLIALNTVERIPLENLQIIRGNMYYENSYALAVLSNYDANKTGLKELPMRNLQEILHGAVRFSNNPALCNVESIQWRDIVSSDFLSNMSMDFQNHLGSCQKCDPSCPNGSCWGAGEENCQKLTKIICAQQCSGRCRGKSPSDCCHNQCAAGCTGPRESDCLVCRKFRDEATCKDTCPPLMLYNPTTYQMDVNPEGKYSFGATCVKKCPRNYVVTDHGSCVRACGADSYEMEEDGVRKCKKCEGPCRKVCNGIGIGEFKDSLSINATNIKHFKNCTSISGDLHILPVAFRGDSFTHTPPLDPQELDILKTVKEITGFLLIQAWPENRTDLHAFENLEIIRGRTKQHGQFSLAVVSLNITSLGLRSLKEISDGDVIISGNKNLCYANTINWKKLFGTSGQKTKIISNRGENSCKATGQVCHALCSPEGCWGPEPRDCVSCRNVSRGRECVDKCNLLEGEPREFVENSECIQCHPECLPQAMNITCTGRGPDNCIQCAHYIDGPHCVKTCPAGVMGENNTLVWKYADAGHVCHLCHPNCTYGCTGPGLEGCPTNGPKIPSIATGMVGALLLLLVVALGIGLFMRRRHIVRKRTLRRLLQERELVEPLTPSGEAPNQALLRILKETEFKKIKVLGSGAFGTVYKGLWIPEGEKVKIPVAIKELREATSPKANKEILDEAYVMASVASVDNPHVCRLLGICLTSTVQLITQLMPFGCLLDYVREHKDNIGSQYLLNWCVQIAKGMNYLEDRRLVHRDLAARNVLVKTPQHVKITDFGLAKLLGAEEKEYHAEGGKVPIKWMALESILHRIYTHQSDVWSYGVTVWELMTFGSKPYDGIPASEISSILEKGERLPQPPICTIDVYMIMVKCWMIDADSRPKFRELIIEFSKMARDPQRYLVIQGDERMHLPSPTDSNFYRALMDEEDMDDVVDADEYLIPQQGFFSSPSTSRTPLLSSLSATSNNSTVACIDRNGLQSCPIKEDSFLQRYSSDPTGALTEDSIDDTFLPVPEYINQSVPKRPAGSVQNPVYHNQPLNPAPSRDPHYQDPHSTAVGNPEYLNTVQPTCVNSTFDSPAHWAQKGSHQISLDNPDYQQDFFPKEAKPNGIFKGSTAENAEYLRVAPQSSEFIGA
compound,measurement,setting,value
"COc1c(F)cccc1Nc1c(-c2ccncc2C#C[C@@H]2CCCO2)[nH]c2c1C(=O)NCC2 (single isomer, unassigned) [Compound 148a]",IC50,Ba/F3 cells with EGFR WT,> 1000 nM
same,IC50,[1],100 to 1000 nM
"COc1c(F)cccc1Nc1c(-c2ccncc2C#CC2CCCO2)[nH]c2c1C(=O)NCC2 (single isomer, unassigned) [Compound 148b]",IC50,Ba/F3 cells with EGFR WT,> 1000 nM
same,IC50,[1],100 to 1000 nM
"COc1c(F)cccc1Nc1c(-c2ccncc2OCCOC2CC2)[nH]c2c1C(=O)NCC2 [Compound 135, 2-(3-(2-cyclopropoxyethoxy)pyridin-4-yl)-3-((3-fluoro-2-methoxyphenyl)amino)-1,5,6,7-tetrahydro-4H-pyrrolo[3,2-c]pyridin-4-one]",IC50,Ba/F3 cells with EGFR WT,> 1000 nM
same,IC50,[2],> 1000 nM
"COc1c(Cl)cccc1Nc1c(-c2ccncc2OC[C@@H]2CCCN2S(C)(=O)=O)[nH]c2c1C(=O)NCC2 [Compound 142a, (S)-3-((3-chloro-2-methoxyphenyl)amino)-2-(3-((1-(methylsulfonyl)pyrrolidin-2-yl)methoxy)pyridin-4-yl)-1,5,6,7-tetrahydro-4H-pyrrolo[3,2-c]pyridin-4-one]",IC50,Ba/F3 cells with EGFR WT,100 to 1000 nM
same,IC50,[2],100 to 1000 nM
COc1c(F)cccc1Nc1c(-c2ccncc2C#CC(C)(C)OC)[nH]c2c1C(=O)NCC2 [compound 149],IC50,Ba/F3 cells with EGFR WT,> 1000 nM
same,IC50,[2],100 to 1000 nM
"C=CC(=O)N1CCC[C@H]1COc1cnccc1-c1[nH]c2c(c1Nc1cccc(Cl)c1CC)C(=O)NCC2 [compound 216, 3-[(3-chloro-2-ethylphenyl)amino]-2-(3-{[(2S)-1-(prop-2-enoyl)pyrrolidin-2-yl]methoxy}pyridin-4-yl)-1H,5H,6H,7H-pyrrolo[3,2-c]pyridin-4-one]",IC50,Ba/F3 cells with EGFR WT,100 to 1000 nM
same,IC50,[1],< 100 nM
same,IC50,[2],< 100 nM
"C=CC(=O)N1CC(C)(C)C[C@@H]1C#Cc1cnccc1-c1[nH]c2c(c1Nc1cccc(Cl)c1OC)C(=O)NCC2 [compound 235, 3-[(3-chloro-2-methoxyphenyl)amino]-2-(3-{2-[(2R)-4,4-dimethyl-1-(prop-2-enoyl)pyrrolidin-2-yl]ethynyl}pyridin-4-yl)-1H,5H,6H,7H-pyrrolo[3,2-c]pyridin-4-one]",IC50,Ba/F3 cells with EGFR WT,< 100 nM
same,IC50,[1],< 100 nM
same,IC50,[2],< 100 nM
"C=CC(=O)N1[C@H](C)CC[C@@H]1C#Cc1cnccc1-c1[nH]c2c(c1Nc1cccc(Cl)c1OC)C(=O)NCC2 [compound 238, 3-[(3-chloro-2-methoxyphenyl)amino]-2-(3-{2-[(2R,5R)-5-methyl-1-(prop-2-enoyl)pyrrolidin-2-yl]ethynyl}pyridin-4-yl)-1H,5H,6H,7H-pyrrolo[3,2-c]pyridin-4-one]",IC50,Ba/F3 cells with EGFR WT,100 to 1000 nM
same,IC50,[1],< 100 nM
same,IC50,[2],< 100 nM
"C=CC(=O)N1[C@H](C)CC[C@H]1C#Cc1cnccc1-c1[nH]c2c(c1Nc1cccc(Cl)c1OC)C(=O)NCC2 [compound 239, 3-[(3-chloro-2-methoxyphenyl)amino]-2-(3-{2-[(2S,5R)-5-methyl-1-(prop-2-enoyl)pyrrolidin-2-yl]ethynyl}pyridin-4-yl)-1H,5H,6H,7H-pyrrolo[3,2-c]pyridin-4-one]",IC50,Ba/F3 cells with EGFR WT,< 100 nM
same,IC50,[1],< 100 nM
same,IC50,[2],< 100 nM
"C=CC(=O)N1[C@H](C)CC[C@@H]1C#Cc1cnccc1-c1[nH]c2c(c1Nc1cccc(F)c1OC)C(=O)NCC2 [compound 256, 3-[(3-fluoro-2-methoxyphenyl)amino]-2-(3-{2-[(2R,5R)-5-methyl-1-(prop-2-enoyl)pyrrolidin-2-yl]ethynyl}pyridin-4-yl)-1H,5H,6H,7H-pyrrolo[3,2-c]pyridin-4-one]",IC50,Ba/F3 cells with EGFR WT,100 to 1000 nM
same,IC50,[1],< 100 nM
same,IC50,[2],< 100 nM
"C=CC(=O)NC1(C#Cc2cnccc2-c2[nH]c3c(c2Nc2cccc(F)c2OC)C(=O)NCC3)CCC1 [compound 262, N-{1-[2-(4-{3-[(3-fluoro-2-methoxyphenyl)amino]-4-oxo-1H,5H,6H,7H-pyrrolo[3,2-c]pyridin-2-yl}pyridin-3-yl)ethynyl]cyclobutyl}prop-2-enamide]",IC50,Ba/F3 cells with EGFR WT,100 to 1000 nM
same,IC50,[1],< 100 nM
same,IC50,[2],< 100 nM
"CC#CC(=O)N1CCOC[C@@H]1COc1cnccc1-c1[nH]c2c(c1Nc1cccc(F)c1OC)C(=O)NCC2 [compound 293, 2-(3-{[(3R)-4-(but-2-ynoyl)morpholin-3-yl]methoxy}pyridin-4-yl)-3-[(3-fluoro-2-methoxyphenyl)amino]-1H,5H,6H,7H-pyrrolo[3,2-c]pyridin-4-one]",IC50,Ba/F3 cells with EGFR WT,> 1000 nM
same,IC50,[1],> 1000 nM
same,IC50,[2],> 1000 nM
"COc1c(F)cccc1Nc1c(-c2ccncc2C#C[C@H]2CCCN2C(=O)/C=C/CN(C)C)[nH]c2c1C(=O)NCC2 [compound 303, 2-(3-{2-[(2R)-1-[(2E)-4-(dimethylamino)but-2-enoyl]pyrrolidin-2-yl]ethynyl}pyridin-4-yl)-3-[(3-fluoro-2-methoxyphenyl)amino]-1H,5H,6H,7H-pyrrolo[3,2-c]pyridin-4-one]",IC50,Ba/F3 cells with EGFR WT,> 1000 nM
same,IC50,[1],100 to 1000 nM
same,IC50,[2],100 to 1000 nM
"C=CC(=O)N1CCC[C@]1(C)C#Cc1cnccc1-c1[nH]c2c(c1Nc1cccc(F)c1C)C(=O)NCC2 [compound 304, 3-[(3-fluoro-2-methylphenyl)amino]-2-(3-{2-[(2R)-2-methyl-1-(prop-2-enoyl)pyrrolidin-2-yl]ethynyl}pyridin-4-yl)-1H,5H,6H,7H-pyrrolo[3,2-c]pyridin-4-one]",IC50,Ba/F3 cells with EGFR WT,< 100 nM
same,IC50,[1],< 100 nM
same,IC50,[2],< 100 nM
"C=CC(=O)N1CC[C@@H]1[C@H](C)Oc1cnccc1-c1[nH]c2c(c1Nc1cccc(F)c1OC)C(=O)NCC2 [compound 310, 3-[(3-fluoro-2-methoxyphenyl)amino]-2-{3-[(1S)-1-[(2R)-1-(prop-2-enoyl)azetidin-2-yl]ethoxy]pyridin-4-yl}-1H,5H,6H,7H-pyrrolo[3,2-c]pyridin-4-one]",IC50,Ba/F3 cells with EGFR WT,> 1000 nM
same,IC50,[1],100 to 1000 nM
same,IC50,[2],100 to 1000 nM
CC#CC(=O)N1CC[C@H]1C#Cc1cnccc1-c1[nH]c2c(c1Nc1cccc(Cl)c1OC)C(=O)NCC2 [compound 371],IC50,Ba/F3 cells with EGFR WT,100 to 1000 nM
same,IC50,[1],< 100 nM
same,IC50,[2],< 100 nM
CC#CC(=O)N1CC[C@@H]1C#Cc1cnccc1-c1[nH]c2c(c1Nc1cccc(Cl)c1OC)C(=O)NCC2 [compound 372],IC50,Ba/F3 cells with EGFR WT,100 to 1000 nM
same,IC50,[1],< 100 nM
same,IC50,[2],< 100 nM
C=CC(=O)NC1(C#Cc2cnccc2-c2[nH]c3c(c2Nc2cccc(F)c2OC)C(=O)NCC3)CC2(COC2)C1 [compound 402],IC50,Ba/F3 cells with EGFR WT,> 1000 nM
same,IC50,[1],100 to 1000 nM
same,IC50,[2],100 to 1000 nM
COc1c(F)cccc1Nc1c(-c2ccncc2C#C[C@H]2CCC[C@H]2OC)[nH]c2c1C(=O)NCC2 [compound 485],IC50,Ba/F3 cells with EGFR WT,100 to 1000 nM
same,IC50,[1],< 100 nM
COc1c(F)cccc1Nc1c(-c2ccncc2C#C[C@@H]2CCC[C@@H]2OC)[nH]c2c1C(=O)NCC2 [compound 486],IC50,Ba/F3 cells with EGFR WT,> 1000 nM
same,IC50,[1],100 to 1000 nM
COc1c(Cl)cccc1Nc1c(-c2ccncc2C#CC2(OC)COC2)[nH]c2c1C(=O)NCC2 [compound 491],IC50,Ba/F3 cells with EGFR WT,100 to 1000 nM
same,IC50,[1],< 100 nM
COc1ccccc1C#Cc1cnccc1-c1[nH]c2c(c1Nc1cccc(Cl)c1OC)C(=O)NCC2 [compound 497],IC50,Ba/F3 cells with EGFR WT,100 to 1000 nM
same,IC50,[1],< 100 nM
Cc1c(F)cccc1Nc1c(-c2ccncc2C#CC2CC2)[nH]c2c1C(=O)NCC2 [compound 498],IC50,Ba/F3 cells with EGFR WT,> 1000 nM
same,IC50,[1],100 to 1000 nM
COCC#Cc1cnccc1-c1[nH]c2c(c1Nc1cccc(F)c1C)C(=O)NCC2 [compound 500],IC50,Ba/F3 cells with EGFR WT,> 1000 nM
same,IC50,[1],100 to 1000 nM
COc1ccccc1C#Cc1cnccc1-c1[nH]c2c(c1Nc1cccc(F)c1C)C(=O)NCC2 [compound 501],IC50,Ba/F3 cells with EGFR WT,100 to 1000 nM
same,IC50,[1],< 100 nM
COc1ccc(C#Cc2cnccc2-c2[nH]c3c(c2Nc2cccc(F)c2C)C(=O)NCC3)cn1 [compound 502],IC50,Ba/F3 cells with EGFR WT,> 1000 nM
same,IC50,[1],100 to 1000 nM
COc1cccnc1C#Cc1cnccc1-c1[nH]c2c(c1Nc1cccc(F)c1C)C(=O)NCC2 [compound 503],IC50,Ba/F3 cells with EGFR WT,100 to 1000 nM
same,IC50,[1],100 to 1000 nM
Cc1c(F)cccc1Nc1c(-c2ccncc2C#CC2CCOCC2)[nH]c2c1C(=O)NCC2 [compound 504],IC50,Ba/F3 cells with EGFR WT,> 1000 nM
same,IC50,[1],100 to 1000 nM
Cc1c(F)cccc1Nc1c(-c2ccncc2C#CCN2CCOCC2)[nH]c2c1C(=O)NCC2 [compound 505],IC50,Ba/F3 cells with EGFR WT,> 1000 nM
same,IC50,[1],> 1000 nM
Cc1c(F)cccc1Nc1c(-c2ccncc2C#Cc2cnn(C)c2)[nH]c2c1C(=O)NCC2 [compound 506],IC50,Ba/F3 cells with EGFR WT,> 1000 nM
same,IC50,[1],100 to 1000 nM
Cc1c(F)cccc1Nc1c(-c2ccncc2C#CC2(C)COC2)[nH]c2c1C(=O)NCC2 [compound 507],IC50,Ba/F3 cells with EGFR WT,> 1000 nM
same,IC50,[1],100 to 1000 nM
Cc1c(F)cccc1Nc1c(-c2ccncc2C#CC2CCOC2)[nH]c2c1C(=O)NCC2 (centres unmarked) [compound 508],IC50,Ba/F3 cells with EGFR WT,> 1000 nM
same,IC50,[1],100 to 1000 nM
Cc1c(F)cccc1Nc1c(-c2ccncc2C#CC2COC2)[nH]c2c1C(=O)NCC2 [compound 509],IC50,Ba/F3 cells with EGFR WT,> 1000 nM
same,IC50,[1],100 to 1000 nM
C=CC(=O)N1CC(F)(F)C[C@H]1C#Cc1cnccc1-c1[nH]c2c(c1Nc1cccc(Cl)c1OC)C(=O)NCC2 [compound 520],IC50,Ba/F3 cells with EGFR WT,< 100 nM
same,IC50,[1],< 100 nM
COC(C)C#Cc1cnccc1-c1[nH]c2c(c1Nc1cccc(F)c1C)C(=O)NCC2 (centres unmarked) [compound 524],IC50,Ba/F3 cells with EGFR WT,> 1000 nM
same,IC50,[1],100 to 1000 nM
COc1c(Cl)cccc1Nc1c(-c2ccncc2C#CC2CCC2)[nH]c2c1C(=O)NCC2 [compound 525],IC50,Ba/F3 cells with EGFR WT,> 1000 nM
same,IC50,[1],< 100 nM
C=CC(=O)N1CCC1C#Cc1cnccc1-c1[nH]c2c(c1Nc1cccc(F)c1OC)C(=O)NCC2 (centres unmarked) [compound 544],IC50,Ba/F3 cells with EGFR WT,< 100 nM
same,IC50,[1],< 100 nM
COc1c(Cl)cccc1Nc1c(-c2ccncc2C#CC2CC(F)(F)C2)[nH]c2c1C(=O)NCC2 [compound 548],IC50,Ba/F3 cells with EGFR WT,> 1000 nM
same,IC50,[1],100 to 1000 nM
